From patent US7012068B2, “Co-administration of a polysaccharide with a chemotherapeutic agent for the treatment of cancer” (Pro-Pharmaceuticals, Inc., priority 2001, dated 2006)
Several values for one entry are separate records, joined by “and”; a condition that tells them apart may be missing. Equal values may be shown once. Read-outs that look alike come from different tables or passages of the source.

Assays:
[1] = tested on: COLO 205 human colon tumor; conditions: for Animals died, Total: over 8 weeks (incl. sacrificed); for Mean survival time: parametric models and stratified Kaplan-Meier estimation
Albino Swiss mice [2] = conditions: 17 days
mice = conditions: cited from earlier work
Albino Swiss mice [3] = conditions: single i.v. LD50 dose of Adriamycin with or without galactomannan, 14 days
Procedure: Acute systemic toxicity of the anti-tumor drug adriamycin in the presence and absence of mannan was evaluated in Albino Swiss mice. Mice were bred as described Example 1. Experimental procedures followed approved governmental guidelines as described in Example 1.
A single dose intravenous injection of the adriamycin alone or adriamycin together with galactomannan preparations was provided via the tail vein at a dose of 0.5 mL/mouse at the doses described below in (1)-(3) and observed for clinical signs immediately after injection, and daily for the duration of the study.
There were a total of 3 groups of 5 animals each. The groups were as follows: 1) 0.9% NaCl only, 2) Adriamycin only (1.1 mg/mL) and Adriamycin (1.1 mg/mL)+galactomannan (7.2mg/mL).
0.9% NaCl was used as a diluent. Animals were weighed prior to injection and at the end of the observation period. Animals surviving at the end of the study were sacrificed by carbon dioxide inhalation.
The ability of galactomannan to reduce the toxicity of LD50 dosed of Adriamycin was measured by presence or absence of mortality in animals injected with the combination of Adriamycin and the particular polysaccharide.

[4] = 1 week after treatment initiation, q4d × 3, 5-FU 75 mg/kg, GM 120 mg/kg
[5] = 1 week after treatment initiation, q4d × 3, 5-FU 75 mg/kg, GM 120 mg/kg, 10 mice per group
[6] = 2 weeks after treatment initiation, q4d × 3, 5-FU 75 mg/kg, GM 120 mg/kg
[7] = 2 weeks after treatment initiation, q4d × 3, 5-FU 75 mg/kg, GM 120 mg/kg, 10 mice per group
[8] = 3 weeks after treatment initiation, q4d × 3, 5-FU 75 mg/kg, GM 120 mg/kg
[9] = 3 weeks after treatment initiation, q4d × 3, 5-FU 75 mg/kg, GM 120 mg/kg, 10 mice per group
[10] = 4 weeks (28 days) after treatment initiation, q4d × 3, 5-FU 75 mg/kg, GM 120 mg/kg
[11] = 4 weeks after treatment initiation, q4d × 3, 5-FU 75 mg/kg, GM 120 mg/kg, 10 mice per group
[12] = 5 weeks (35 days) after treatment initiation, q4d × 3, 5-FU 75 mg/kg, GM 120 mg/kg
[13] = 5 weeks after treatment initiation, q4d × 3, 5-FU 75 mg/kg, GM 120 mg/kg, 10 mice per group
[14] = 6 weeks after treatment initiation (incl. sacrificed), q4d × 3, 5-FU 75 mg/kg, GM 120 mg/kg, 10 mice per group
[15] = 6 weeks after treatment initiation, q4d × 3, 5-FU 75 mg/kg, GM 120 mg/kg
[16] = 7 weeks after treatment initiation (incl. sacrificed), q4d × 3, 5-FU 75 mg/kg, GM 120 mg/kg, 10 mice per group
[17] = 7 weeks after treatment initiation, q4d × 3, 5-FU 75 mg/kg, GM 120 mg/kg
[18] = 8 weeks after treatment initiation (incl. sacrificed), q4d × 3, 5-FU 75 mg/kg, GM 120 mg/kg, 10 mice per group
[19] = Day 0 after treatment initiation, q4d × 3, 5-FU 75 mg/kg, GM 120 mg/kg
[20] = Day 3 after treatment initiation, q4d × 3, 5-FU 75 mg/kg, GM 120 mg/kg
[21] = i.v. q4d × 3, 5-FU 75 mg/kg, GM 120 mg/kg
[22] = i.v. q4d × 3, 5-FU 75 mg/kg, GM 120 mg/kg, 10 mice per group
[23] = q4d × 3, 5-FU 75 mg/kg, GM 120 mg/kg, 10 mice per group
[24] = q4d × 3, 5-FU 75 mg/kg, GM 120 mg/kg
[25] = GM 60 mg/kg q1d × 5, 10 mice per group

Molecule: O=c1[nH]cc(F)c(=O)[nH]1 [5-FU, 5-fluorouracil, reference compound]
- Median tumor weight [1, 4]: 198 mg
- Animals died [1, 5]: 1
- Median tumor weight [1, 6]: 245 mg
- Animals died [1, 7]: 2
- Median tumor weight [1, 8]: 352 mg
- Animals died [1, 9]: 0
- Median tumor weight [1, 10]: 527 mg
- Animals died [1, 11]: 0
- deaths out of ten mice within 10 days after the treatment initiation ([1]; 5-FU 375 mg/kg/dose q4d×3, alone or with galactomannan 120 mg/kg/dose): nine
- Median tumor weight [1, 12]: 990 mg
- Animals died [1, 13]: 1
- Animals died [1, 14]: 0
- Median tumor weight [1, 15]: 1345 mg
- Animals died [1, 16]: 0
- Median tumor weight [1, 17]: 1881 mg
- Animals died [1, 18]: 1
- Median tumor weight [1, 19]: 101 mg
- Median tumor weight [1, 20]: 135 mg
- Median days to 2× doubling of tumor weight [1, 21]: 23.7 days
- Animals with small tumors (20% and less) compared to median of untreated after 4-8 weeks of treatment [1, 22]: 1
- treatment-related (nonspecific) deaths within two weeks ([1]; out of ten mice, q4d×3, 5-FU 75 mg/kg/dose, galactomannan 120 mg/kg/dose): three
- Animals died, Total [1, 23]: 5
- Mean survival time [1, 24]: 23.7 days
- death rate (mice dying / mice in group) (Albino Swiss mice [2]; single i.v. 5-FU 420 mg/kg with or without galactomannan): 3/5
- LD50 (mice; 5-FU, single dose in mice, Physician's Desk Reference 48th Edition): 340 mg/kg

Molecule: COc1cccc2c1C(=O)c1c(O)c3c(c(O)c1C2=O)C[C@@](O)(C(=O)CO)C[C@@H]3O[C@H]1C[C@H](N)[C@H](O)[C@H](C)O1 [Adriamycin, doxorubicin]
- LD50 (mice; Adriamycin, i.v. in mice, The Merck Index, 12th Edition): 21.1 mg/kg
- mortality (mice died / mice in group) (Albino Swiss mice [3]): Three out of 5 and 3 out of 5
- mortality (mice died / mice in group) (Albino Swiss mice [3]; listed as adriamycin): 3/5

Molecule: galactomannan [GM]
- Median tumor weight ([1]; 1 week after treatment initiation, GM 60 mg/kg q1d × 5): 216 mg
- Animals died ([1]; 1 week after treatment initiation, GM 60 mg/kg q1d × 5, 10 mice): 1
- Median tumor weight [1, 4]: 258 mg
- Animals died [1, 5]: 0
- Median tumor weight ([1]; 2 weeks after treatment initiation, GM 60 mg/kg q1d × 5): 319 mg
- Animals died ([1]; 2 weeks after treatment initiation, GM 60 mg/kg q1d × 5, 10 mice): 0
- Median tumor weight [1, 6]: 320 mg
- Animals died [1, 7]: 0
- Median tumor weight ([1]; 3 weeks after treatment initiation, GM 60 mg/kg q1d × 5): 512 mg
- Animals died ([1]; 3 weeks after treatment initiation, GM 60 mg/kg q1d × 5, 10 mice): 0
- Median tumor weight [1, 8]: 629 mg
- Animals died [1, 9]: 0
- Median tumor weight [1, 10]: 959 mg
- Median tumor weight ([1]; 4 weeks after treatment initiation, GM 60 mg/kg q1d × 5): 690 mg
- Animals died ([1]; 4 weeks after treatment initiation, GM 60 mg/kg q1d × 5, 10 mice): 1
- Animals died [1, 11]: 0
- Median tumor weight [1, 12]: 1692 mg
- Median tumor weight ([1]; 5 weeks after treatment initiation, GM 60 mg/kg q1d × 5): 1116 mg
- Animals died ([1]; 5 weeks after treatment initiation, GM 60 mg/kg q1d × 5, 10 mice): 0
- Animals died [1, 13]: 0
- Animals died [1, 14]: 1
- Median tumor weight ([1]; 6 weeks after treatment initiation, GM 60 mg/kg q1d × 5): 1421 mg
- Animals died ([1]; 6 weeks after treatment initiation, GM 60 mg/kg q1d × 5, 10 mice): 0
- Median tumor weight [1, 15]: 1690 mg
- Animals died ([1]; 7 weeks after treatment initiation (incl. sacrificed), GM 60 mg/kg q1d × 5, 10 mice): 1
- Animals died [1, 16]: 0
- Median tumor weight ([1]; 7 weeks after treatment initiation, GM 60 mg/kg q1d × 5): 1152 mg
- Median tumor weight [1, 17]: 1764 mg
- Median tumor weight ([1]; 8 weeks (56 days) after treatment initiation, GM 60 mg/kg q1d × 5): 1152 mg
- Median tumor weight ([1]; 8 weeks (56 days) after treatment initiation, q4d × 3, 5-FU 75 mg/kg, GM 120 mg/kg): 1813 mg
- Animals died [1, 18]: 1
- Animals died ([1]; 8 weeks after treatment initiation, GM 60 mg/kg q1d × 5, 10 mice): 0
- Median tumor weight ([1]; Day 0 after treatment initiation, GM 60 mg/kg q1d × 5): 117 mg
- Median tumor weight [1, 19]: 100 mg
- Median tumor weight ([1]; Day 3 after treatment initiation, GM 60 mg/kg q1d × 5): 162 mg
- Median tumor weight [1, 20]: 162 mg
- Median days to 2× doubling of tumor weight ([1]; GM 60 mg/kg q1d × 5): 20.0 days
- Animals with small tumors (20% and less) compared to median of untreated after 4-8 weeks of treatment [1, 25]: 0
- Tumor complete regression after 56 days of treatment [1, 25]: 0
- Median days to 2× doubling of tumor weight [1, 21]: 15.5 days
- Animals with small tumors (20% and less) compared to median of untreated after 4-8 weeks of treatment [1, 22]: 1
- Tumor complete regression after 56 days of treatment [1, 22]: 0
- Animals died, Total ([1]; GM 60 mg/kg q1d × 5, 10 mice): 3
- Animals died, Total [1, 23]: 2
- Mean survival time ([1]; GM 60 mg/kg q1d × 5): 18.1 days
- Mean survival time [1, 24]: 19.2 days
- Signs of Toxicity (summary of clinical observations) (Albino Swiss mice [2]; individual male mouse, single i.v. 0.5 mL/mouse: 5-FU 17 mg/mL, GM 4.73 mg/mL, 5-FU 17 mg/mL + GM 9.06 mg/mL): None
